From ChEMBL document CHEMBL5653631, “A Potent and Selective ULK1 Inhibitor Suppresses Autophagy and Sensitizes Cancer Cells to Nutrient Stress” (iScience, 2018) come the findings set out here.

Assay [1] has as its target Cyclin-dependent kinase-like 1 (Homo sapiens) (UniProt Q00532). The assay is described as follows: Inhibition of human recombinant CDKL1 at 40 nM related to control ULK1.
Assay [2] addresses Serine/threonine-protein kinase PLK2 (Homo sapiens) (UniProt Q9NYY3). The assay is described as follows: Inhibition of human recombinant PLK2 at 40 nM related to control ULK1.
For assay [3], the target named is T1, Serine/threonine-protein kinase TBK1 (Homo sapiens) (UniProt Q9UHD2).
T1 sequence (whole entry): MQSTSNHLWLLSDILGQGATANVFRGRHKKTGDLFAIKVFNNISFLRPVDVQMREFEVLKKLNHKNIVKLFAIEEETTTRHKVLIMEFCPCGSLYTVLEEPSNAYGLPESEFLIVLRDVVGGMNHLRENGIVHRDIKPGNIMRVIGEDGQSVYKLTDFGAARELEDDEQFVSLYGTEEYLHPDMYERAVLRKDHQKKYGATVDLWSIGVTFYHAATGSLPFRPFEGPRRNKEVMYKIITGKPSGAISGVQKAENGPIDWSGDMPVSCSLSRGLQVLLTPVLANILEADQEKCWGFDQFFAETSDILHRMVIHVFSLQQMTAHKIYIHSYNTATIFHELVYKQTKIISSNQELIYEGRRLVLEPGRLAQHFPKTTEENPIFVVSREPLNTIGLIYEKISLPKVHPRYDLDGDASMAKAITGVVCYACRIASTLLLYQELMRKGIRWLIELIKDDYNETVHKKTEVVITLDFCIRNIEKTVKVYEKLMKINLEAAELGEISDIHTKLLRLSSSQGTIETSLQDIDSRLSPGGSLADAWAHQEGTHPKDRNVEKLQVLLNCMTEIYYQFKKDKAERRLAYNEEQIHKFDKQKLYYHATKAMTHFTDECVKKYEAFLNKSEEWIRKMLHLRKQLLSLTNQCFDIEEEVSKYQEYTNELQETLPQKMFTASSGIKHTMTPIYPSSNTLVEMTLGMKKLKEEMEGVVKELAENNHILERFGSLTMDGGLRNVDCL
The assay is described as follows: Inhibition of human recombinant TBK1 at 40 nM related to control ULK1.

Assay [4] has as its target T2, Homeodomain-interacting protein kinase 4 (Homo sapiens) (UniProt Q8NE63).
T2 sequence (whole entry): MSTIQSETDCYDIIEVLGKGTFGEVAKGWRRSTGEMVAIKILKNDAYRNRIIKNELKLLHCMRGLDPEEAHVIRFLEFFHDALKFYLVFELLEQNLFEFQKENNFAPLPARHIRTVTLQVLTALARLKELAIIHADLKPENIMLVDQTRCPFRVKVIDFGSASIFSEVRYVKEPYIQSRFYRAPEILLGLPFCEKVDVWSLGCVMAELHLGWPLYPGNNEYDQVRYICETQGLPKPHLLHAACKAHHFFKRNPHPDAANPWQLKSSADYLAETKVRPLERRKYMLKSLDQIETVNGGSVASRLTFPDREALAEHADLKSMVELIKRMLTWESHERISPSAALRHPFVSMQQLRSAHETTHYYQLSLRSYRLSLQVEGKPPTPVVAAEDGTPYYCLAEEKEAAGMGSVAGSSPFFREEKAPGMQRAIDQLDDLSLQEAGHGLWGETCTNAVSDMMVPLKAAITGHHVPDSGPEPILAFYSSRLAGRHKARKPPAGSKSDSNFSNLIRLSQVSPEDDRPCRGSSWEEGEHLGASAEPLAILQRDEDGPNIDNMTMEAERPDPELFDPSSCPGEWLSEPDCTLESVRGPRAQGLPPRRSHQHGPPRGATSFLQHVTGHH
The assay is described as follows: Inhibition of human recombinant HIPK4 at 500 nM in presence of ATP by radiometric assay relative to control.

Assay [5] addresses T3, MAPK/MAK/MRK overlapping kinase (Homo sapiens) (UniProt Q9UQ07).
T3 sequence (whole entry): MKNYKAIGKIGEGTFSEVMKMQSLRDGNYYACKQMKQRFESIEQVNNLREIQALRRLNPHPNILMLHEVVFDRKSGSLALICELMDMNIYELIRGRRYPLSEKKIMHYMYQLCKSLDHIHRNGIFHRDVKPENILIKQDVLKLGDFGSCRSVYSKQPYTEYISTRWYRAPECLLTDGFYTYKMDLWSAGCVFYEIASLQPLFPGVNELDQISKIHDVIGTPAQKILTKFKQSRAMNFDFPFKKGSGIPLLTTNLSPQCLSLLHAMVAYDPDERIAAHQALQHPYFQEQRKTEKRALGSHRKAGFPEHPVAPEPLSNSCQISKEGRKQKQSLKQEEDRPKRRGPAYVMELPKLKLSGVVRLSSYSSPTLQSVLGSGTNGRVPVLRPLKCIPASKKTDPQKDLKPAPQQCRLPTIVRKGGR
The assay is described as follows: Inhibition of human recombinant MOK at 500 nM in presence of ATP by radiometric assay relative to control.

Assay [6] has as its target Platelet-derived growth factor receptor alpha (Homo sapiens) (UniProt P16234). Nature of the assay: Inhibition of human recombinant PDGFRa at 500 nM in presence of ATP by radiometric assay relative to control.
Assay [7] has as its target Calcium/calmodulin-dependent protein kinase type II subunit beta (Homo sapiens) (UniProt Q13554). The assay is described as follows: Inhibition of human recombinant CaMK2b at 500 nM related to control ULK1.
Assay [8] has as its target Phosphorylase b kinase gamma catalytic chain, skeletal muscle/heart isoform (Homo sapiens) (UniProt Q16816). The assay is described as follows: Inhibition of human recombinant PHKg1 at 500 nM related to control ULK1.
Assay [9] addresses Angiopoietin-1 receptor (Homo sapiens) (UniProt Q02763). The assay is described as follows: Inhibition of human recombinant Tie2 at 500 nM related to control ULK1.
Assay [10] has as its target Calcium/calmodulin-dependent protein kinase type II subunit gamma (Homo sapiens) (UniProt Q13555). The assay is described as follows: Inhibition of human recombinant CaMK2g at 15 nM in presence of ATP by radiometric assay relative to control.
Assay [11] concerns the target Misshapen-like kinase 1 (Homo sapiens) (UniProt Q8N4C8). Nature of the assay: Inhibition of human recombinant MINK at 15 nM in presence of ATP by radiometric assay relative to control.
The target in assay [12] is T4, Serine/threonine-protein kinase ULK3 (Homo sapiens) (UniProt Q6PHR2).
T4 sequence (whole entry): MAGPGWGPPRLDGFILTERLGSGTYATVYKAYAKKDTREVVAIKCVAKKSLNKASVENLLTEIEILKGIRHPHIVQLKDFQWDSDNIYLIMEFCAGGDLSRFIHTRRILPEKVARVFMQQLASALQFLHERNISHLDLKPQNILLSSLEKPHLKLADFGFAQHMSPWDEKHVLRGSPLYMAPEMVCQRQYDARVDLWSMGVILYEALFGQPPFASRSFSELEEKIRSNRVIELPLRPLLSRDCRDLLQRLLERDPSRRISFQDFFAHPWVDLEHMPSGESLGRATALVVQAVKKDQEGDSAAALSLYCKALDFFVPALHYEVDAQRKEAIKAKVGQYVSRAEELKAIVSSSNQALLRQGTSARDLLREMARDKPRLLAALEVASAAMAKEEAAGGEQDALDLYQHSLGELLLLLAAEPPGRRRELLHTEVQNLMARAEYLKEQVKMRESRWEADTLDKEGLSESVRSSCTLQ
The assay is described as follows: Inhibition of human recombinant ULK3 at 15 nM related to control ULK1.

Phosphorylase b kinase gamma catalytic chain, skeletal muscle/heart isoform (Homo sapiens), sequence (Q16816 whole entry, looked up, canonical isoform): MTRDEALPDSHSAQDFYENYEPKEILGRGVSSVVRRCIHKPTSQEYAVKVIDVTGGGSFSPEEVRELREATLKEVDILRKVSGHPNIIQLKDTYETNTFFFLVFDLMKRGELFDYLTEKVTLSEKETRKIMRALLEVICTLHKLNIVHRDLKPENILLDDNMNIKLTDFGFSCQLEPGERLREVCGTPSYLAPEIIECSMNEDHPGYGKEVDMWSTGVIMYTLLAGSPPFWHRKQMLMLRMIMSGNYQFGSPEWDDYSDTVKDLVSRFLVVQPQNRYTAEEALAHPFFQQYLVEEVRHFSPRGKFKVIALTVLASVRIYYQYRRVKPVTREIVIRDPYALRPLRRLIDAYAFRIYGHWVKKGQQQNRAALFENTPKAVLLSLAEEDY
Misshapen-like kinase 1 (Homo sapiens), sequence (Q8N4C8 whole entry, looked up): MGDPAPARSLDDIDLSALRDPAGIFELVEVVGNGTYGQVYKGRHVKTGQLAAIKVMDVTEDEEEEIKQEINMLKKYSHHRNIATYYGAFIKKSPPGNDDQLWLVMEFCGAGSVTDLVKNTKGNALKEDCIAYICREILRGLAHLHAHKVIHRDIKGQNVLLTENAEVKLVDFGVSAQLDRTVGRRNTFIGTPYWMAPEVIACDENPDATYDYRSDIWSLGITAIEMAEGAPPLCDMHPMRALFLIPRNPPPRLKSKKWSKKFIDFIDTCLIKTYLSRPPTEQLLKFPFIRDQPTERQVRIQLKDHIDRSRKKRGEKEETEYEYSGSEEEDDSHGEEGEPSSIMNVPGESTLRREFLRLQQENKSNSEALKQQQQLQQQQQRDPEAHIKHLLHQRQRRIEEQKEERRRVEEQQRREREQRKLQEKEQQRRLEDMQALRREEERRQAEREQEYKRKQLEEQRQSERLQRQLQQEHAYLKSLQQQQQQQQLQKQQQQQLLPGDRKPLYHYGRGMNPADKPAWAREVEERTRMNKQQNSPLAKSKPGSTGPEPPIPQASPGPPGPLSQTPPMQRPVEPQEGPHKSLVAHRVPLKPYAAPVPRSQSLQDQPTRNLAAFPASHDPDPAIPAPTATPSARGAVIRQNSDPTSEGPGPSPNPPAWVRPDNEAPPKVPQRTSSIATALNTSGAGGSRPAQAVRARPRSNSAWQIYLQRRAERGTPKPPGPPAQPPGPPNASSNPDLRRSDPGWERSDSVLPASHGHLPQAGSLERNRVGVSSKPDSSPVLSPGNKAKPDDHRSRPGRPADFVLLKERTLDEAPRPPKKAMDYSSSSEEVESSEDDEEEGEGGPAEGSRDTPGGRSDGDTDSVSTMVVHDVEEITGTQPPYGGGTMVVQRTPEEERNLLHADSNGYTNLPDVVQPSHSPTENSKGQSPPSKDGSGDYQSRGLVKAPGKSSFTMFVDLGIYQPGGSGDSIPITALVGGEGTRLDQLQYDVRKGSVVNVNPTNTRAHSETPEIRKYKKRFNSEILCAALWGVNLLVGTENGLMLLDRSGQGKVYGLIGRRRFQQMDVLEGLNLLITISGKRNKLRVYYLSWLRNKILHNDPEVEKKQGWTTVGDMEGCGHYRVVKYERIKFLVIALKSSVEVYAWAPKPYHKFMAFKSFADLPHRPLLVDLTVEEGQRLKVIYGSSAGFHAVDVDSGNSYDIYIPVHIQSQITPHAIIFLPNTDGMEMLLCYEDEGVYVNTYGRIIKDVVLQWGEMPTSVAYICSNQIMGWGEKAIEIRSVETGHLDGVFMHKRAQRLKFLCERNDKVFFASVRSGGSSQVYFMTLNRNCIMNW
Cyclin-dependent kinase-like 1 (Homo sapiens), sequence (Q00532 whole entry): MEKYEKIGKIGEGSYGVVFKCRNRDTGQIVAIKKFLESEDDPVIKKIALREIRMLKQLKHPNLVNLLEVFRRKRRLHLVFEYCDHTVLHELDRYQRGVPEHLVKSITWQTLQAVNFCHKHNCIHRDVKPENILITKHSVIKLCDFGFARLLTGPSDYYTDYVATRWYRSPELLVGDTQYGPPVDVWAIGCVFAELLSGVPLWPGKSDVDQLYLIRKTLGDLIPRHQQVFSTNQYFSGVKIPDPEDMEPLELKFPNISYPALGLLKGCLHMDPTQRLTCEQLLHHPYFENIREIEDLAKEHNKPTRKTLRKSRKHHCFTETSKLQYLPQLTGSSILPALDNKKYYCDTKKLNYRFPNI
Serine/threonine-protein kinase PLK2 (Homo sapiens), sequence (Q9NYY3 whole entry, looked up): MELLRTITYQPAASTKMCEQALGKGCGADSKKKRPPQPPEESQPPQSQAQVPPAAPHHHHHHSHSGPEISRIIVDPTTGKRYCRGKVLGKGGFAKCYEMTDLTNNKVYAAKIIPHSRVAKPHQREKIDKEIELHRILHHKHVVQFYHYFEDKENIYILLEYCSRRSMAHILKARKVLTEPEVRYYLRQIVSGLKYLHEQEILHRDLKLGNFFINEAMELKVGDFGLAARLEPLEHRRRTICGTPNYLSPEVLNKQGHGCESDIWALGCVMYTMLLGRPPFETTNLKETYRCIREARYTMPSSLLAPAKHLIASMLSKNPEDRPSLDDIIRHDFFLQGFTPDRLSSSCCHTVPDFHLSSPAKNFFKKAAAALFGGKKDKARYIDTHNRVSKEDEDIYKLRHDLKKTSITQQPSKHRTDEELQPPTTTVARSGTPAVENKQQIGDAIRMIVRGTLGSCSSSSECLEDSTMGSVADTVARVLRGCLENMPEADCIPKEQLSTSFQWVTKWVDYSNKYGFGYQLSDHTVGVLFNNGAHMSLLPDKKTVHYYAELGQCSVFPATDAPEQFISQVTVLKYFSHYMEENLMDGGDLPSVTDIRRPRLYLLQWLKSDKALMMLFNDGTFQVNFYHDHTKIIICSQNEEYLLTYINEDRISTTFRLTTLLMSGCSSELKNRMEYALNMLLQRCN
Calcium/calmodulin-dependent protein kinase type II subunit beta (Homo sapiens), sequence (Q13554 whole entry, canonical isoform): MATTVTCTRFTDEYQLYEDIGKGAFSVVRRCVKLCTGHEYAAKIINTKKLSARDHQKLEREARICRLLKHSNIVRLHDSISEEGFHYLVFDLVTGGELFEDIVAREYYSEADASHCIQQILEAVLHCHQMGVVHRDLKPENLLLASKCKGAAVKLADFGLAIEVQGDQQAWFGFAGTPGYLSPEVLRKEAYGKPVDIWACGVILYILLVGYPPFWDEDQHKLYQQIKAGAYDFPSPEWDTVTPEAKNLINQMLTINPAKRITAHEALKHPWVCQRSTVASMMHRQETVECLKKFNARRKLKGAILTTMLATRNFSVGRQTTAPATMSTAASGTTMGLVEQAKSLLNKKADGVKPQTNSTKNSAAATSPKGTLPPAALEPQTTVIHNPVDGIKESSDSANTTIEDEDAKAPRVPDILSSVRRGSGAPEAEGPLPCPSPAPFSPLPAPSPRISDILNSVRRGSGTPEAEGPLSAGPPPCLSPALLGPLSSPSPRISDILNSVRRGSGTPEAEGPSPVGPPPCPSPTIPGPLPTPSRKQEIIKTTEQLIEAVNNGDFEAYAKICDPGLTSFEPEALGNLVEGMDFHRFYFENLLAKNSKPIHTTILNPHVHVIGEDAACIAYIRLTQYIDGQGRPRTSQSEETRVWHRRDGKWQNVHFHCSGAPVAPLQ
Platelet-derived growth factor receptor alpha (Homo sapiens), sequence (P16234 whole entry): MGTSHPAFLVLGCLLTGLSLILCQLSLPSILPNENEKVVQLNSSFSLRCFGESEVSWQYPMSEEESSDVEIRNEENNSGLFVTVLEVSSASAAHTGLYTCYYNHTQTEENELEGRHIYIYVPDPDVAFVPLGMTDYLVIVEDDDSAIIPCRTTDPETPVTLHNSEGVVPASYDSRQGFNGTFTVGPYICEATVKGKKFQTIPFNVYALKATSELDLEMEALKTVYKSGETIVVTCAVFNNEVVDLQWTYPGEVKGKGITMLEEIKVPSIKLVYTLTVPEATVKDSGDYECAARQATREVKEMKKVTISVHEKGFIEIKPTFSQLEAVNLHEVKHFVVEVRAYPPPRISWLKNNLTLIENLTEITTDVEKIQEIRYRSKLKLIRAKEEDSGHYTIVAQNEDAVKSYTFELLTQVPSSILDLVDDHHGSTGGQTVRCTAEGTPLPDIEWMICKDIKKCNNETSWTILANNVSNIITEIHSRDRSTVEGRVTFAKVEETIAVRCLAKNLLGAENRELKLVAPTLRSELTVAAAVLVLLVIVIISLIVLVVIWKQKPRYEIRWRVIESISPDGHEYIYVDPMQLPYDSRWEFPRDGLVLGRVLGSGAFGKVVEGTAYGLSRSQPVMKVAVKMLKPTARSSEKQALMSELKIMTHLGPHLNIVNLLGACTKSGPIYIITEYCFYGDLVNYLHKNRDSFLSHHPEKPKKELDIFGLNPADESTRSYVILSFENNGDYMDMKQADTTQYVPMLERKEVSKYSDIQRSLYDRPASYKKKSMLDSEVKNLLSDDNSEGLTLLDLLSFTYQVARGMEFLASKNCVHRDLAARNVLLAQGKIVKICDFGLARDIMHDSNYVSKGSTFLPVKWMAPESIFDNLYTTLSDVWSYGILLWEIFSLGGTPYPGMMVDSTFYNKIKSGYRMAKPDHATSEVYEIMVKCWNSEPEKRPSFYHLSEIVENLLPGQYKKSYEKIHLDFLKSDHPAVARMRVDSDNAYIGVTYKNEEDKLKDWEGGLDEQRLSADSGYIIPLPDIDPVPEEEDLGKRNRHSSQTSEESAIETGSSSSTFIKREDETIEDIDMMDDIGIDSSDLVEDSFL
Calcium/calmodulin-dependent protein kinase type II subunit gamma (Homo sapiens), sequence (Q13555 whole entry): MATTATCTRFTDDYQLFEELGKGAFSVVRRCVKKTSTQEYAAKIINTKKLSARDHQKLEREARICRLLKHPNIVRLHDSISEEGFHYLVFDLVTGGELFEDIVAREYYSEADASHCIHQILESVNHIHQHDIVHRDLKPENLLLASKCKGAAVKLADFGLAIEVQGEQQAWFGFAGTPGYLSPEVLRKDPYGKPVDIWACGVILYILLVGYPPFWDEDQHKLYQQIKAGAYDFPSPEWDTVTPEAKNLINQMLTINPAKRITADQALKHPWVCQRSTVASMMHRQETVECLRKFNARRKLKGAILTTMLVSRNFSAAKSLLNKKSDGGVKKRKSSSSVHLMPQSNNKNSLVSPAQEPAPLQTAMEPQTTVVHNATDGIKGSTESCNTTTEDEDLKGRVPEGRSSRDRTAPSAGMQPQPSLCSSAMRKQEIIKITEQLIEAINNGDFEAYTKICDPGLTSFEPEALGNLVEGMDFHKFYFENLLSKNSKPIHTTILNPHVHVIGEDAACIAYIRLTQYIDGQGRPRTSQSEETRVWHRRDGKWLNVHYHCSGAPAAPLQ

On to `O=C(N[C@@H](C1CC1)C(F)(F)F)c1cc(-c2cnn3cc(-c4ccc(F)cc4)cnc23)cs1`, for which the fold change (FC) is 0.21 in [1], 0.04 in assay [2] and 0.36 in [3].
By inhibition is commonly meant the relative decrease from the control value, in per cent. For `CNC(=O)c1ccccc1Oc1nc(Nc2cc(OC)c(OC)c(OC)c2)ncc1Br`, the results for the inhibition in [4], in assay [5] and in assay [6] were 9%, 2% and 0%, respectively. The fold change (FC) in assay [7] turned out to be 0; in [8], 0.31; in [9], 0.31.
In the case of `CC(C)[C@H](NC(=O)c1cc(-c2cnn3cc(-c4ccc(OCCN5CCCCC5)cc4)cnc23)cs1)C(F)(F)F`, the inhibition amounted to 22% in assay [10] and 4% in assay [11]. Also, the fold change (FC) in assay [12] was determined as 0.45.
